Measurements reported in patent US7727998B2, “Melanin-concentrating hormone receptor antagonists containing piperidine derivatives as the active ingredient” (Banyu Pharmaceutical Co., Ltd., priority 2003, dated 2010).
Where two headings read alike, the source gives them in different places.

Molecular target: T1, human MCH-1R (Homo sapiens, UniProt Q99705)
T1 construct: expressed in transfected cells; host or cells: CHO-K1 (American Type Culture Collection), membrane samples
Test: MCH binding inhibition test
Excerpt: Pharmacological Test Example 1
(MCH Binding Inhibition Test)
A human MCH-1R encoding cDNA sequence [FEBS Letters, Vol. 398, p. 253 (1996); Biochimica et Biophisica Acta, Vol. 1401, p. 216 (1998)] was cloned to plasmid vector pEF/mic/cyto (Invitrogen Corporation). The obtained expression vector was transfected to a host cell CHO-K1 (American Type Culture Collection) using lipofectamine plus reagent (Life Technology Inc.) to provide MCH-1R expression cells.
Membrane samples prepared from the MCH-1R expression cells were incubated with each test compound and 50 pM of [^125I]MCH (NEN Co.), in an assay buffer (50 mM Tris buffer comprising 10 mM magnesium chloride, 2 mM ethylenediamine tetraacetate, 0.01% bacitracin and 0.2% bovine serum albumin; pH 7.4) at 25° C. for an hour, followed by filtration through Glass Filter GF/C (Wattman Co.). After washing the glass filter with 50 mM Tris buffer (pH7.4) comprising 10 mM magnesium chloride, 2 mM ethylenediamine tetraacetate and 0.04% Tween-20, radiative activity on the glass filter was measured. Non-specific binding was measured in the presence of 1 μM human MCH and 50% inhibition concentration (IC50 value) of each test compound to specific [^125] MCH binding was determined.

[1] = inhibition of specific [125I]MCH (50 pM) binding, membranes of MCH-1R expressing CHO-K1 cells, 25° C., one hour, pH 7.4, read-out: IC50

T1 sequence (Q99705 whole entry): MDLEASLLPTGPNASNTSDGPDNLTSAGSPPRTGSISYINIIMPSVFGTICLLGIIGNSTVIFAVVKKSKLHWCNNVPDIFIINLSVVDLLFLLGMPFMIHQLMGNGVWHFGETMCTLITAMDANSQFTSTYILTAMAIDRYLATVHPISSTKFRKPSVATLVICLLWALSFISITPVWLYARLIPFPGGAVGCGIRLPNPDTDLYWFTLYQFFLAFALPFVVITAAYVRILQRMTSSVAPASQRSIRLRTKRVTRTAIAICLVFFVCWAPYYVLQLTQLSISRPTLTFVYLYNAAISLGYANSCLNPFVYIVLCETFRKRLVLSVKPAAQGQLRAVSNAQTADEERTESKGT

SMILES | IC50 | IC50 [1]
O=C(NCCCN1CCC2(CC1)OCc1cc(F)ccc12)C(c1ccc(F)c(F)c1)N1CCCC1=O (stereo not drawn) [Example 6, 2-(3,4-Difluorophenyl)-2-(2-oxo-1-pyrrolidinyl)-N-[3-(spiro[5-fluoroisobenzofuran-1(3H), 4′-piperidin]-1-yl)propyl]-acetamide] | 5 nM | 
CN(CCCN1CCC2(CC1)OCc1ccccc12)C(=O)C(c1ccc(Cl)cc1)n1cccc1 (stereo not drawn) [Example 12, 2-(4-Chlorophenyl)-N-methyl-2-(1H-pyrrol-1-yl)-N-[3-(spiro-[isobenzofuran-1(3H), 4′-piperidin]-1-yl)propyl]acetamide] |  | 1 nM
CN(CCCN1CCC2(CC1)OCc1ccccc12)C(=O)C(c1ccc(F)c(F)c1)n1ccnn1 (stereo not drawn) [Example 18, 2-(3,4-Difluorophenyl)-N-methyl-2-(1H-1,2,3-triazol-1-yl)-N-[3-(spiro[isobenzofuran-1(3H), 4′-piperidin]-1-yl)propyl]acetamide] |  | 1.9 nM
CN(CCCN1CCC2(CC1)OCc1ccccc12)C(=O)C(c1ccc(F)c(F)c1)n1ncnn1 (stereo not drawn) [Example 28, 2-(3,4-Difluorophenyl)-N-methyl-2-(2H-1,2,3,4-tetrazol-2-yl)-N-[3-(spiro[isobenzofuran-1(3H), 4′-piperidin]-1-yl)propyl]acetamide] | 1.9 nM | 
CN(CCCN1CCC2(CC1)OCc1cc(F)ccc12)C(=O)C(c1ccc(F)c(F)c1)N1CCCC1=O (stereo not drawn) [Example 33, 2-(3,4-Difluorophenyl)-N-methyl-2-(2-oxo-1-pyrrolidinyl-N-[3-spiro[5-fluoroisobenzofuran-1(3H), 4′-piperidin]-1-yl)-propyl]acetamide] | 1.4 nM | 
Cc1nccn1C(C(=O)N(C)CCCN1CCC2(CC1)OCc1ccc(F)cc12)c1ccc(F)c(F)c1 (stereo not drawn) [Example 43, 2-(3,4-Difluorophenyl)-N-methyl-2-(2-methyl-1H-imidazol-1-yl)-N-[3-(spiro[6-fluoroisobenzofuran-1(3H), 4′-piperidin]-1-yl)-propyl]acetamide] | 0.2 nM | 
CN(CCCN1CCC2(CC1)OCc1cc(F)ncc12)C(=O)C(c1ccc(F)nc1)c1ccc(F)nc1 [Example 48, 2,2-Bis(6-fluoro-3-pyridinyl)-N-methyl-N-[3-(spiro[5-fluoro-6-azaisobenzofuran-1(3H), 4′-piperidin]-1-yl)propyl]-acetamide] | 6.5 nM | 
CCC(=O)Nc1cccc(C2CCN(CCCN(C)C(=O)C(C)(C)c3ccc(F)c(F)c3)CC2)c1 [Example 60, 2-(3,4-Difluorophenyl)-2,2-dimethyl-N-methyl-N-[3-(4-(3-(propionylamino)phenyl)-1-piperidinyl)propyl]acetamide] |  | 2.5 nM
CCN(CCCN1CCC2(CC1)OCc1ccccc12)C(=O)C(c1ccc(F)c(F)c1)N1CCCC1=O (stereo not drawn) [Example 67, 2-(3,4-Difluorophenyl)-N-ethyl-2-(2-oxo-1-pyrrolidinyl)-N-[3-(spiro[isobenzofuran-1(3H), 4′-piperidin]-1-yl)propyl]acetamide] |  | 1 nM
